According to ChEMBL document CHEMBL4428063, “Novel Pyrimidine Toll-like Receptor 7 and 8 Dual Agonists to Treat Hepatitis B Virus” (J Med Chem, 2016):

Key:
[1] = target: T1, Toll-like receptor 7 (Homo sapiens) (UniProt Q9NYK1); test: Activation of TLR7 in human PBMCs incubated for overnight duration followed by compound-treated cell supernatant conditioned media transfer to HCV1b transfected human HuH7-luc/neo replicon cells assessed as induction of INFalpha-mediated suppression of virus growth by firefly-luciferase reporter gene assay
T1 sequence (whole entry): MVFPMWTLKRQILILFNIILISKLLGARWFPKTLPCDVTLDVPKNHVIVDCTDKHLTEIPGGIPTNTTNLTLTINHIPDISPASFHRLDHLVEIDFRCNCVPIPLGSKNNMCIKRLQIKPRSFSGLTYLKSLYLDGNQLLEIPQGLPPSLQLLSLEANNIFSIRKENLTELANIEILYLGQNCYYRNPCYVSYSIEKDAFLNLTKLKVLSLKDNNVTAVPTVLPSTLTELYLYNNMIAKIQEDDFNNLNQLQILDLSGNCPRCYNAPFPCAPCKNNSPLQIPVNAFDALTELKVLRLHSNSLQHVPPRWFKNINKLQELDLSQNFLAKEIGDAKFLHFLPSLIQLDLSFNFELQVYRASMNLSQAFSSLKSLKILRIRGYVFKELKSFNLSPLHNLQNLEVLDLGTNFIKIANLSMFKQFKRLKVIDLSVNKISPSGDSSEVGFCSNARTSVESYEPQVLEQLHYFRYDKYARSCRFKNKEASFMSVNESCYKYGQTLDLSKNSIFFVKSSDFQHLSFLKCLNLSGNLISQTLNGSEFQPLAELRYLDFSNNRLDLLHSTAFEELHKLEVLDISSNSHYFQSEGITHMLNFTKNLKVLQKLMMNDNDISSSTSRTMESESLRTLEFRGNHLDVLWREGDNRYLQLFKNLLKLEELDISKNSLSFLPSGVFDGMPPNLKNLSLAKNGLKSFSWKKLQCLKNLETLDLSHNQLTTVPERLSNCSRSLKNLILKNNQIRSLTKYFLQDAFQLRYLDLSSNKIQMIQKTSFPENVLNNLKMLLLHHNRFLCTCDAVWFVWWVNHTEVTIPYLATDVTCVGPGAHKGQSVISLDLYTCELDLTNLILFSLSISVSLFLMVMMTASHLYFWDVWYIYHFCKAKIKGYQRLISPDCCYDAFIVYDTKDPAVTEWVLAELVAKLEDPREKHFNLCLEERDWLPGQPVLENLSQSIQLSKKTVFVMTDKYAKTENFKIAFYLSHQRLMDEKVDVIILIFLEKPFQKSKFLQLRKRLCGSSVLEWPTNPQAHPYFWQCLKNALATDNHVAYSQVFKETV

[2] = target: T1, Toll-like receptor 7 (Homo sapiens); test: Agonist activity at human TLR7 expressed in HEK293 cells measured after 6 hrs by NF-kappaB luciferase reporter gene assay; type: cell-based
[3] = target: T2, Toll-like receptor 8 (Homo sapiens) (UniProt Q9NR97); test: Agonist activity at human TLR8 expressed in HEK293 cells assessed as measured after 6 hrs by NF-kappaB luciferase reporter gene assay; type: cell-based
T2 sequence (whole entry): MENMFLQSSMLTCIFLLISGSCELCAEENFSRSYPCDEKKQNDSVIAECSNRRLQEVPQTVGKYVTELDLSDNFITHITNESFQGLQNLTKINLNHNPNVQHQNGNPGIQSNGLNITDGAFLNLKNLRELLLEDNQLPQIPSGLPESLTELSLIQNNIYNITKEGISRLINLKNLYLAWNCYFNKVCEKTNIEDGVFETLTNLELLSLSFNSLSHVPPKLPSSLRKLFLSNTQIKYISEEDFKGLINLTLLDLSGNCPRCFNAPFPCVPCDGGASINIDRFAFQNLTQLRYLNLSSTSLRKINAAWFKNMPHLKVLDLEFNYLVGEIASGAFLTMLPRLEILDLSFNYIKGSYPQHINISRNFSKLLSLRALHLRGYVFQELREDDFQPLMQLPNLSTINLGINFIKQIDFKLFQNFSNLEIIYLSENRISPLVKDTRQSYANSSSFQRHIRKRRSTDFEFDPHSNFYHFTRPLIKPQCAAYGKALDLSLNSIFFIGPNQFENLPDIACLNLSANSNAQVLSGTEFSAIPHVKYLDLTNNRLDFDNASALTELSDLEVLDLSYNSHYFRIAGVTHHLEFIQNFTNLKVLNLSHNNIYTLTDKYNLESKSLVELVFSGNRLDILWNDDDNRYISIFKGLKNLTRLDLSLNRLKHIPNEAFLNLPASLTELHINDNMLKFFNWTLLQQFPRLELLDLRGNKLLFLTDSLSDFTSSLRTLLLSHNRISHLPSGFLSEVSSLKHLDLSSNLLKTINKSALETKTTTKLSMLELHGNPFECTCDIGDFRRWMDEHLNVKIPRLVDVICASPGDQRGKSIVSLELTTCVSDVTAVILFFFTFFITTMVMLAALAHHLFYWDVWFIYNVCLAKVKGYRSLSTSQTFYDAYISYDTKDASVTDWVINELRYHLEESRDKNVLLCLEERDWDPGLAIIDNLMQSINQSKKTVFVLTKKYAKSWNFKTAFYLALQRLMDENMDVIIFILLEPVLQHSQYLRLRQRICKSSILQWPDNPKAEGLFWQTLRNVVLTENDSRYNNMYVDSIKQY

HEK293 = test: Agonist activity at human TLR7-dLRR2 mutant expressed in HEK293 cells measured after 6 hrs by NF-kappaB luciferase reporter gene assay; type: cell-based

| Compound | LED [1] [µM] | LED [2] [µM] | LED [3] [µM] | LED (HEK293) [µM] |
| --- | --- | --- | --- | --- |
| CCCCNc1nc(N)ncc1OC(C)C | 0.5 | 10 | 0.7 |  |
| CCCCNc1nc(N)ncc1OCc1ccccc1 | 0.39 | 0.9 | 2.4 |  |
| CCCCNc1nc(N)ncc1OCc1nc2ccccc2[nH]1 | 0.012 | 0.032 | 0.65 |  |
| CCCCNc1nc(N)ncc1OCC |  | 4.7 | 1.1 | 1.6 |
| CCCCNc1nc(N)ncc1OCc1cnccn1 | 0.16 | 0.51 | 2.28 |  |
| COc1cnc(N)nc1N[C@H](CO)CC(C)C | 11 | > 25 | 16 |  |
| CCCCNc1nc(N)ncc1OCc1ccc2ccccc2n1 | 0.09 | 0.3 | 0.89 |  |
| CCCCNc1nc(N)ncc1OCc1nc2ccccc2s1 | 0.11 | 0.28 | 2.6 |  |
| CCCCNc1nc(N)ncc1OCCC | 4.8 | 6.2 | 4.5 |  |
| CCCC(C)Nc1nc(N)ncc1OC (racemic) | 1.7 | > 25 | 2.8 |  |
| CCCCNc1nc(N)ncc1OCc1nc(C)oc1C |  | 0.46 | 1.58 |  |
| CCCCNc1nc(N)ncc1OCc1cccnn1 | 0.12 | 0.52 | 0.83 |  |
| CCCCNc1nc(N)ncc1OCc1nccc2ccccc12 | 0.003 | 0.008 | 0.14 |  |
| CCC[C@@H](CO)Nc1nc(N)ncc1OC | 0.4 | 8.4 | 0.25 |  |
| CCCCNc1nc(N)ncc1OCc1cc(C)nn1C | 0.39 | 0.7 | 0.92 |  |
| C=CCNc1nc(N)ncc1OC | 6.2 | > 25 | 8.5 |  |
| CCC[C@@H](CCO)Nc1nc(N)ncc1OC | 0.8 | 7.3 | 1.4 |  |
| COc1cnc(N)nc1NCCCC(F)(F)F | 1.6 | 6.5 | 6.6 |  |

| Compound | LED [1] [µM] | LED [2] [µM] | LED [3] [µM] | LED (HEK293) [µM] |
| --- | --- | --- | --- | --- |
| CCCCNc1nc(N)ncc1OCc1ncco1 |  | 2.87 | 3.6 |  |
| CC[C@H](C)[C@@H](CO)Nc1nc(N)ncc1OC | 1.7 | 17.8 | 0.66 |  |
| CCCCNc1nc(N)ncc1OCc1csc(C)n1 | 0.07 | 0.29 | 0.74 |  |
| CCCCNc1nc(N)ncc1OCc1cc2ccccn2n1 | 0.037 | 0.21 | 1.3 |  |
| CCCCNc1nc(N)nc(C)c1OCc1ccccc1 |  | 18 | 7.5 |  |
| CCC(C)[C@H](CCO)Nc1nc(N)ncc1OC (some centres undefined) | 2.2 | 10.4 | 2.6 |  |
| CCCCNc1nc(N)ncc1OCc1c(C)noc1C | 0.38 | 3.1 | 1 |  |
| CCCCNc1nc(N)ncc1OCc1cnn(C)c1 |  | 7 | 13.7 |  |
| CCCCNc1nc(N)ncc1OCCCc1ccccc1 | 0.25 | 1.5 | 7.9 |  |
| CC[C@H](C)CNc1nc(N)ncc1OC | > 24 | > 25 | > 25 |  |
| CCCCNc1nc(N)ncc1OCc1nn(C)c2ccccc12 | 0.011 | 0.014 | 0.18 |  |
| CCC[C@H](CO)Nc1nc(N)ncc1OC |  | > 25 | 9 |  |
| CCCCCNc1nc(N)ncc1OCC |  | 6 | 3.2 |  |
| COc1cnc(N)nc1N[C@H](CCO)CC(C)C | 7.5 | 10.8 | 2.3 |  |
| CCCCNc1nc(N)ncc1OCc1nccc(OC)c1OC | 0.022 | 0.13 | 0.6 |  |
| CCCC[C@@H](CO)Nc1nc(N)ncc1OC | 0.4 | 8.01 | 0.39 |  |
| COc1cnc(N)nc1NCCC1CC1 | 6.8 | > 25 | 20.9 |  |
